This is an account of results in patent US12130282B2, “Universal fluorescence assay of high affinity ligand transport” (priority 2018, dated 2024).

The target of one test is T1, EcoFepA-FM (Escherichia coli, UniProt P05825, A720C).
T1 construct: expressed in transfected cells; host or cells: E. coli OKN13 (ΔtonB, ΔfepA), low-copy plasmid pHSG575 derivative
The experiment in a line: Fluorescence quenching binding of ferric catecholates to E. coli OKN13/pEcoFepA-FM. As to conditions: summary of Table 2 for both KpnFepA-FM and EcoFepA-FM fluorescent sensors. From the text: (§1) Affinity determinations by spectroscopic analyses The analytical capabilities of the fluorescence spectroscopic determinations stood out when we compared the recognition of FeEnt and its glucosylated form, FeGEnt (also known as ferric salmochelin), by EcoFepA and KpnFepA. The ability of Gram (−) pathogens, including K. pneumoniae, to glucosylate enterobactin and transport FeGEnt enhances their invasiveness, in part because glucosylation impairs recognition of the iron complex by lipocalins. Additionally, whereas E. coli K12 contains a single chromosomal fepA locus that encodes its FeEnt transporter, pathogenic K. pneumoniae contain at least three fepA orthologs (chromosomal loci 1658, 4984; plasmid PII locus 0027). IroN of Salmonella typhimurium has a role in FeGEnt uptake; its closest ortholog in K. pneumoniae is plasmid-mediated fepA0027. […]
(§2) Fluorescence modifications of Cys-mutant proteins. […]
(§3) Fluorescence spectroscopy. We observed fluorophore-labeled cells in an SLM AMINCO 8100 fluorescence spectrometer, upgraded with an OLIS operating system and software (OLIS SpectralWorks, OLIS Inc., Bogart, GA), to control its shutters, polarizers and data collection. We also utilized an OLIS Clarity fluorescence spectrometer for fluorescence assays of ferric catecholate binding.

For test [1], the system named is KpnFepA-FM (KpnFepA0027_T210C). The experiment in a line: Fluorescence quenching binding of ferric catecholates to E. coli OKN13/pKpnFepA-FM. The arrangement: species or system K. pneumoniae. Particulars: adsorption to KpnFepA.
Text: as §1, §2, §3

The next test has as its system K. pneumoniae Kp52.145. The experiment in a line: FD sensor assay of FeEnt uptake rate by test strain (sensor OKN13/pEcoFepA-FM). The format is cell-based. On the procedure:
FIG. 7. Uptake rates from FD assays. At t=60 s we added varying concentrations of FeEnt [(0.5 nM (green); 1 nM (yellow); 5 nM (orange); 10 nM (red)] to sensor strain OKN13/pEcoFepA-FM in the presence of test strain K. pneumoniae isolate Kp52.145. 10 nM FeEnt gave maximal quenching. For 1 and 5 nM FeEnt, at half-saturation (blue dashed line) we determined the slope of the time course (black dashed line) and the elapsed time (dashed red line). Either parameter estimated the transport rate of the test strain (see text).
Transport rates from spectroscopic analyses. The rate of fluorescence recovery in the spectroscopic system correlates to the rate of ligand depletion by bacterial transport, and comparisons of test strains in universal FD uptake assays reiterated this point. The various ESKAPE bacteria conferred fluorescence recovery at different rates (FIG. 3B). FeEnt binding at 100 s quenched the fluorescence of the FD sensor strain, E. coli OKN13/pEcoFepA-FM. […] But, the fluorescence of the E. coli strain reflected FeEnt uptake by other bacteria in the same solution: as they decreased [FeEnt] by cellular transport the intensity of OKN13/pEcoFepA-FM returned to initial levels (as described in FIG. 1B). The assay monitored FeEnt uptake by E. coli expressing chromosomal (Eco; cyan) or plasmid-mediated (Eco/pfepA+; blue) FepA, and ESKAPE species K. pneumoniae (Kpn; red), A. baumannii (Aba; gold), P. aeruginosa (Pae; green), E. cloacae (Ecl; magenta). […]
Species-specific fluorescence assay of FeEnt uptake: KpnFepA-FM. […] For species-specific ferric siderophore transport assays of Gram (−) bacteria we added an iron complex to 2×10^7 labeled cells in a quartz cuvette (final volume, 2 mL) with stirring at 37° C., and monitored the time course of fluorescence emissions at 520 nm. […] After addition of the ferric siderophore, we monitored the time-course of fluorescence emissions at 520 nm for 15-30 minutes, with stirring. […]

The target of a further test is T2, EcoFepA (Escherichia coli, UniProt P05825).
T2 construct: expressed in transfected cells; host or cells: E. coli OKN3 (ΔfepA), plasmid pITS23 (pHSG575, ecofepA+)
Particulars: read-out: Kd, previous determinations; cited from earlier work.

Test [2] has as its system chromosomally expressed FepA in E. coli. Particulars: cited from earlier work.
A further test has as its target LmoHbp2_S154C-CPM. The experiment in a line: Hemin titration of purified LmoHbp2-CPM, fluorescence quenching. The format is binding, Listeria monocytogenes. Particulars: purified LmoHbp2-CPM 30 nM, 1-255 nM hemin, triplicate. On the procedure: We substituted Cys for residue S154 in NEAT1 of LmoHbp2, expressed and purified the binding protein, and covalently modified it with coumarin maleimide (CPM). Introduction of Cys in NEAT-1 of LmoHbp2 allowed its modification by extrinsic fluorophores, transforming the purified binding protein into a sensitive sensor whose emissions inversely related to [Hn]. […] The experiment was performed in triplicate; the mean values, with standard deviations, are shown. […] When we mixed Hbp2-CPM with heterologous bacteria in solution, it reflected their hemin uptake. Addition of hemin at 300 s quenched LmoHbp2-CPM emissions, but fluorescence rebounded as bacteria {L. monocytogenes (Lmo; blue), B. subtilis (Bsu; gold), S. aureus (Sau; red), V. cholerae (Vch; green)} transported the porphyrin and depleted it from solution. […]
For fluorescence spectroscopic determinations of Gram (+) bacterial heme acquisition we used the FD sensor LmoHbp2_S154C-CPM. […] For measurements of Hn uptake by heterologous bacteria we suspended the LmoHbp2_S154C-CPM sensor protein at 30 nM in PBS+0.2% glucose in a 2 mL cuvette, added Hn to 15 nM after 300 s, and then added iron-starved bacterial cells at 600 s, to a final concentration of 5×10^7/mL, and monitored fluorescence for 2 h.

Test [3] concerns the target LmoHbp2. As to conditions: read-out: Kd, isocalorimetric; cited from earlier work.
Test [4] addresses LmoHbp2. As to conditions: read-out: Kd, radioisotopic; cited from earlier work.

“And” between values parts separate entries of the source, which are not always exact repeats. Equal values may be shown once. Read-outs that look alike come from different tables or passages of the source.

T1 sequence (P05825 23-746 A720C): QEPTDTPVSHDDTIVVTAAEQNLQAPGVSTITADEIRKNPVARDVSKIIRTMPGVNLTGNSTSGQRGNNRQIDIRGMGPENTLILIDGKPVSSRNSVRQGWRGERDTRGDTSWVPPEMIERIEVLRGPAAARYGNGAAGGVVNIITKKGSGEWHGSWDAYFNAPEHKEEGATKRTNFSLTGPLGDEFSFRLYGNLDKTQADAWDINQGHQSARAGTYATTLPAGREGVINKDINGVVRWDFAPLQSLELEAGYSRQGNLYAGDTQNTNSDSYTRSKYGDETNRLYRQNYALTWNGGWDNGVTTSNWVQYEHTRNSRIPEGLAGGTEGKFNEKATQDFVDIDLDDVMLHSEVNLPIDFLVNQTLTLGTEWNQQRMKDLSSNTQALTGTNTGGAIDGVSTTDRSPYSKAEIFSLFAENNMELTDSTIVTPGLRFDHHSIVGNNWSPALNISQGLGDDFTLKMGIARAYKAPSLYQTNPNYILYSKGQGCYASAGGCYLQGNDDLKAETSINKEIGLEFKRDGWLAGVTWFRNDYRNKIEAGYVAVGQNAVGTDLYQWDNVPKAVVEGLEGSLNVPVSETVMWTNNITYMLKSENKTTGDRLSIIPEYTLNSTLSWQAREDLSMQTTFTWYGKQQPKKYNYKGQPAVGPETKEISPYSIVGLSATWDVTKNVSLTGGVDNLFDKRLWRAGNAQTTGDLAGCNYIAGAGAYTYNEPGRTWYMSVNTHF
T2 sequence (P05825 23-746): as the sequence (P05825 23-746 A720C) above, with C698A counted along it

In the case of `O=C(N[C@H]1COC(=O)[C@@H](NC(=O)c2cc([C@@H]3O[C@H](CO)[C@@H](O)[C@H](O)[C@H]3O)cc(O)c2O)COC(=O)[C@@H](NC(=O)c2cc([C@@H]3O[C@H](CO)[C@@H](O)[C@H](O)[C@H]3O)cc(O)c2O)COC1=O)c1cccc(O)c1O.[Fe+3]` [FeGEnt, ferric salmochelin], at EcoFepA-FM, the dissociation constant (Kd) was in the range of 6 to 280 nM. Moreover, in test [1], the “fold lower affinity than FeEnt” value turned out to be 20 fold.

Consider `O=C(N[C@H]1COC(=O)[C@@H](NC(=O)c2cccc([O-])c2[O-])COC(=O)[C@@H](NC(=O)c2cccc([O-])c2[O-])COC1=O)c1cccc([O-])c1[O-].[Fe+3]` [FeEnt, ferric enterobactin], for which the Kd on EcoFepA-FM was ~0.38 nM and 0.4 nM; on EcoFepA it was 0.2 to 0.5 nM. Besides, the “time required to deplete 5 nM FeEnt to 0.38 nM (half-saturation)” value in the test with K. pneumoniae Kp52.145 (10^7 cells/mL K. pneumoniae Kp52.145) turned out to be 520 s. In addition, the “mean uptake rate over the first 520 s” value with K. pneumoniae Kp52.145 (10^7 cells/mL K. pneumoniae Kp52.145, 5 nM FeEnt) came to 53 pMol/10^9 cells/min. Also, the Vmax entry with K. pneumoniae Kp52.145 (K. pneumoniae Kp52.145, mean rate ÷ 0.8) was “≈ 66 pMol/10^9 cells/min”; in test [2] it was 50-100 pMol/min/10^9 cells.

For hemin, the dissociation constant Kd at LmoHbp2_S154C-CPM was 12 ± 3.1 nM; on LmoHbp2 [3], 25 to 48 nM; at LmoHbp2 [4], 12 nM.

By Kd is commonly meant the concentration at which binding is half-saturated.
